The subject of one assay is neuroglial cell cultures. Nature of the assay: Seahorse assay (OCR/ECAR), acute effects under seizure- and ketogenic diet-like conditions. The note with it: HBSS, 0.1 mM Mg2+, 1 mM glucose, 500 μM bHB, 1 mM pyruvate, 1 mM citrate as added, vs control medium. Type of assay: cell-based, rat. As to the method:
(§1) The oxygen consumption rates (OCRs) and extracellular acidification rates (ECARs) of cells seeded in 96-well plates were monitored in real time at 37° C. in unbuffered Hanks Balanced Salt Solution (HBSS). The OCRs represent foremost mitochondrial respiration, and to a minor extent non-mitochondrial respiration. The ECARs relate foremost to the acidification of the medium with lactate produced through glycolysis and secreted by the cells into the medium (Table 1).
(§2) During the Seahorse run, both the OCRs and ECARs were measured simultaneously at baseline and following the injection of compounds by the Seahorse instrument (Table 1). HBSS was supplemented with glucose from the start and no glucose was injected through the Seahorse instruments. Measurements were repeated three times at baseline and three times after each compound injection.
(§3) After the initial baseline measurement, oligomycin (OM) was injected. OM blocks mitochondrial ATP synthase (complex V) and therefore decreases mitochondrial respiration. The OCRs after OM injection are due to the mitochondrial proton leak. They enable to determine whether the test nutrients impact the proton leak. The difference in OCRs at baseline and after OM injection is the amount of oxygen used for mitochondrial ATP synthesis at baseline. From this difference in OCR, the mitochondrial ATP production rates are calculated.
After OM, uncoupling agent carbonyl cyanide-p- trifluoromethoxyphenyl-hydrazon [FCCP] was injected which collapses the proton gradient across the inner mitochondrial membrane established during respiration and required for ATP synthesis. The cells attempt to restore the proton gradient following FCCP injection by maximizing respiration. The OCRs measured after FCCP injection therefore represent the maximal respiratory capacity of the mitochondria in the sample and enable to determine whether test nutrients impact the maximal respiratory capacity of the mitochondria.
Finally, Antimycin A, a complex III inhibitor, and Rotenone, a complex I inhibitor, were co-injected, both blocking the respiratory chain at different sites to entirely shut down mitochondrial respiration and determine the non-mitochondrial respiration. The latter is necessary to correct all OCRs and obtain the mitochondrial OCRs.
The ECARs were measured simultaneously at baseline and after OM and FCCP injection. The glycolytic ATP production was calculated from the baseline ECARs. The subsequent injection of OM pushed the cells to maximize their glycolytic ATP production to compensate for the loss in mitochondrial ATP production inflicted by OM. The further addition of FCCP drove mitochondrial respiration to a maximum and this eventually led to a further increase in glycolytic rates providing pyruvate into the TCA cycle to sustain maximal respiration. Therefore, the ECARs after FCCP injection were used to determine the maximum glycolytic capacity of the cells.
To assess the effect of citrate and pyruvate under seizure- and ketogenic diet-like conditions a batch of cells was switched one hour prior to the Seahorse run to HBSS medium (which is a nutrient deprived culture medium) containing low (1 mM) glucose, 500 μM bHB and low (0.1 mM) Mg^2+, 1 mM citrate or 1 mM pyruvate (FIG. 6). The ketone p-hydroxybutyrate (bHB) was included during the Seahorse run at a concentration of 500 μM to mimic the nutrient environment of a ketogenic diet. This bHB concentration corresponds to the circulating bHB concentration of a mild ketogenic diet such as the Modified Atkins Diet.
For the Seahorse assay that was run under seizure- and ketogenic diet like-conditions the cells were then incubated in HBSS medium containing low (0.1 mM) Mg^2+ and one of the following additions: • i) 1 mM glucose (control medium), • ii) 500 μM bHB, • iii) 500 μM bHB plus 1 mM citrate, • iv) 500 μM bHB plus 1 mM pyruvate or • v) 500 μM bHB with 1 mM citrate plus 1 mM pyruvate. […]

The test system of assay [1] is primary rat neuronal-glial cell cultures. Nature of the assay: Seahorse assay (OCR/ECAR), acute 1 h nutrient pre-incubation, resting or seizure-like conditions. Type of assay: cell-based. To be noted: 0.25 mM and 1 mM pyruvate in low Mg2+ medium vs low Mg2+ medium without pyruvate. As to the method: A Seahorse assay was performed on primary rat neuronal-glial cell cultures to determine the impact of pyruvate and citric acid on glycolytic rates and lactate delivery, mitochondrial respiration and total (glycolytic and mitochondrial) ATP production.
Rat cortical cells were isolated from embryonic day 18 embryos using a combination of enzymatic and mechanical dissociation of brain cortical rat tissue. Immediately after dissociation, the cells were seeded at a density of 500′000 cells per mL in 96-well plates and grown at 37° C. for two weeks from day in vitro (DIV) 0 until DIV14 in Neurobasal medium supplemented with 2% (v/v) B27, 0.8 mM Magnesium (Mg2+), 25 mM glucose and 1% (v/v) Penicillin/Streptomycin. During this time neuronal axons grew out and formed synaptic contacts. In addition, glial cells, foremost astrocytes, grew and formed contacts with neurons. The incubation in 25 mM glucose accelerated the differentiation and network growth of neurons.
From DIV14 until DIV17, the cells were incubated in Neurobasal medium supplemented with 2% (v/v) B27, 0.8 mM Mg2+, 5 mM glucose and 1% (v/v) Penicillin/Streptomycin. The switch from high to low glucose was done to approach the low intracerebral glucose concentration of the human brain and create a more physiological metabolic environment.
The switch from 5 mM to 1 mM glucose matched the glucose concentrations in the human brain. Meanwhile the switch from high (0.8 mM) to low (0.1 mM) Mg^2+ increases the electrical firing frequency of neurons because Mg2+ is an inhibitor of excitatory NMDA-type ionotropic glutamate receptors, which account for most of the neuronal firing in this cell culture model. The increase in neuronal firing caused by incubation in 0.1 mM Mg^2+ increases the energy production of neurons and glial cells as reflected in the increase in basal respiration (FIG. 1B and E). After 1 hour of pre-incubation in the Seahorse medium containing the nutrients, the oxygen consumption rate [OCRs] and extracellular acidification rate [ECARs] of the neuroglial culture were measured in the Seahorse assay.
as §1, §2, §3
After OM, uncoupling agent carbonyl cyanide-p- trifluoromethoxyphenyl-hydrazon [FCCP] was injected which collapses the proton gradient across the inner mitochondrial membrane established during respiration and required for ATP synthesis. The cells attempt to restore the proton gradient following FCCP injection by maximizing respiration. […]

The subject of assay [2] is primary mouse neuroglial cultures. Briefly: Cell death by high content imaging (Hoechst/NeuN nuclear shrinkage) after chronic hyperstimulation. The note with it: 1 mM; for dead neuron count (neuron death): FIG. 10F/11F. Type of assay: cell-based. As to the method: To determine whether pyruvate and citrate protect neurons and glial cells from cell death induced by chronic electrical hyperstimulation. To assess protection from cell death induced by repeated hyperstimulation, primary mouse neuroglial cultures were assayed. Neuroglial cell cultures were prepared and grown until DIV14 as described above. From DIV14 until DIV17 they were switched to NBM containing B27, low (2.5 mM) glucose, and low (0.1 mM) Mg^2+ or high (0.8 mM) Mg^2+. Incubation in low (0.1 mM) Mg^2+ medium increases the neuronal firing rates, thus creating a state of chronic hyperstimulation. The test nutrients (pyruvate or citrate) were supplied through the medium from DIV14 until DIV17. On DIV17, the cell nuclei were stained with the Hoechst dye and co-immunolabelled for NeuN, a protein found only in the nuclei of neurons. The neuronal and non-neuronal cell nuclei were scored for nuclear shrinkage, a hallmark of cell death, by high content imaging.
To assess cell death by high content imaging the cells were fixed on DIV17 in 1% formaldehyde, permeabilized with ethanol and incubated with a rabbit polyclonal IgG antibody against NeuN, a neuron-specific protein localized to the nucleus, followed by detection with a secondary anti-rabbit IgG antibody linked to a red fluorescent label. Neuronal and non-neuronal cell nuclei were then counterstained with the blue fluorescent nuclear dye Hoechst. The nuclei were counted by a high content imager based on signal intensity and size. A cut-off value was applied to exclude objects of low signal intensity considered noise. Then, cut-off values were applied to exclude objects with an area below 30 μM^2 considered cell debris and objects with an area above 300 μM^2 considered cell clumps. A boundary of 60 μM^2 was set to distinguish between nuclei from alive and dead cells. Objects areas of 30 μM^2 to 60 μM^2 were counted as nuclei from dead cells, while object areas of 60 μM^2 to 300 μM^2 were counted as nuclei from alive cells. The counting was done at 20-fold magnification on a fixed number of optical fields per well. The counts of nuclei from dead neurons or dead cells were related to the number of alive neurons or alive cells, respectively, in the same well.
Neuroglial cell cultures were supplemented with 1 mM citrate from DIV14 until DIV17. On DIV17, total cell death and neuron-specific cell death were quantified by high content imaging. The total number of Hoechst positive objects or NeuN positive objects prior to applying cut-off values for the signal intensity and the area size was equal between the different groups (FIG. 10 A, D).

Assay [3] concerns primary rat neuronal-glial cell cultures. Nature of the assay: Seahorse assay (OCR/ECAR), acute 1 h nutrient pre-incubation, resting or seizure-like conditions. Type of assay: cell-based.

As for `CC(O)CC(=O)O` (centres unmarked) [bHB, b-hydroxybutyrate], in the assay with neuroglial cell cultures (FIG. 6A), the “change in basal glycolytic ATP production” value is reported as “did not alter”; the “change in total (mitochondrial and glycolytic) ATP production” value is recorded as “did not impact”. In addition, the “change in basal (mitochondrial) respiration” value in the assay on neuroglial cell cultures (FIG. 6B) is “did not impact”. Moreover, the “change in FCCP-driven maximal respiratory capacity” value with neuroglial cell cultures (FIG. 6D) was “did not impact”. In the assay with neuroglial cell cultures (FIG. 7A), the “change in basal glycolysis” value was “did not alter”. Also, in the assay on neuroglial cell cultures (FIG. 7C), the “change in FCCP-driven maximal glycolytic capacity” value is listed as “did not alter”.

As to `CC(=O)C(=O)O` [pyruvate], in assay [1] (FIG. 1B), the “increase in basal respiration” value is given as 30-40%. In addition, the “increase in oligomycin-induced proton leak” value in assay [1] (FIG. 1C) was 10-15%. Moreover, the “increase in glycolytic rates at baseline” value in assay [1] (FIG. 2A) is 15-20%. Besides, the “increase in glycolytic rates after FCCP injection” value in assay [1] (FIG. 2C) is reported as 20-30%. The “increase in dead cell counts from high Mg2+ to low Mg2+ medium” value in assay [2] (DIV14-DIV17, chronic hyperstimulation, FIG. 10C/11C) is ~1%. For the same compound, the dead cell counts in assay [2] (DIV14-DIV17, high (0.8 mM) Mg2+ medium, FIG. 10C/11C) was ~19%; in assay [2] (DIV14-DIV17, low (0.1 mM) Mg2+ medium, FIG. 10C/11C), ~20%. The “dead neuron count (neuron death)” value in assay [2] (DIV14-DIV17, high Mg2+ medium) is −1.5%; in assay [2] (DIV14-DIV17, low Mg2+ medium) it was ~1.4%. Besides, the “increase in total (mitochondrial and glycolytic) ATP production rates” value in assay [3] (0.25 mM and 1 mM pyruvate in low (0.1 mM) Mg2+ medium vs low Mg2+ medium without pyruvate, FIG. 1A) was 400-500%. Further, the “increase in FCCP-driven maximal respiratory capacity” value in assay [3] (0.25 mM and 1 mM pyruvate in low Mg2+ medium vs low Mg2+ medium without pyruvate, FIG. 1D) is 200-250%.

The values above are taken from patent US20240415793A1, “Neuroprotective composition comprising pyruvate and citrate” (N.V. Nutricia, priority 2022, published 2024).
